Data on 20 molecules can be found in PubChem BioAssay (NCI).

Some test systems named below: A549 NSCLC; DU-145 prostate; HCC-2998 colon; MDA-MB-231 breast; MDA-MB-435; NCI-H23 lung; NCI-H522 lung; PC-3 prostate; TK-10 renal; U251 CNS.
What all share (test): NCI tumour cell line growth inhibition, 48 h

Several values for one entry are separate records, joined by “and”; a condition that tells them apart may be missing. Equal entries are not always repeated.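 Each compound was tested at five concentrations against cells in 96-well plates for 48 hours. Definition used: TGI = concentration required for complete inhibition of growth.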 Where a SMILES comes first, the peptide text is derived from it. The star is where a group is joined. Cbz = O=C(OCc1ccccc1)*

With `c1ccc(-c2cc(-c3cc(-c4ccccc4)n(-c4ccccc4)n3)nn2-c2ccccc2)cc1`, the TGI in the assay with A549 NSCLC, in the assay on DU-145 prostate, in the assay with HCC-2998 colon, with MDA-MB-231 breast, in the assay with MDA-MB-435 and in the assay on NCI-H23 lung was greater than 100 µM in each case. For the same molecule, the TGI in the assay with NCI-H522 lung, in the assay with PC-3 prostate, in the assay with TK-10 renal and in the assay on U251 CNS was greater than 100 µM each time.
For `O=C(/C=C/c1ccc(O)c(O)c1)OCCOC(=O)/C=C/c1ccc(O)c(O)c1`, the TGI with A549 NSCLC is greater than 100 µM; in the assay with DU-145 prostate, 79.8 µM; in the assay with HCC-2998 colon, greater than 100 µM; with MDA-MB-231 breast, greater than 100 µM; in the assay with MDA-MB-435, 98 µM; in the assay with NCI-H23 lung, greater than 100 µM. For the same molecule, the TGI in the assay with NCI-H522 lung is 46.9 µM; in the assay with PC-3 prostate, 86.5 µM; with TK-10 renal it was greater than 100 µM; with U251 CNS it was 59.2 µM.
`O=C1c2cc(CCl)sc2C(=O)c2ccsc21`: the TGI in the assay on A549 NSCLC turned out to be 0.417 µM; with DU-145 prostate, 0.332 µM; with HCC-2998 colon, 3.04 µM; in the assay with MDA-MB-231 breast, 0.588 µM; in the assay with MDA-MB-435, 0.0339 µM; in the assay on NCI-H23 lung, 0.136 µM. In addition, the TGI came out at 1.12 µM in the assay on NCI-H522 lung, 0.839 µM in the assay with PC-3 prostate, 3.41 µM in the assay on TK-10 renal and 1.14 µM with U251 CNS.
Regarding `COC/C=C\[C@@]1(O)CCCC[C@@H]1CC(OC)OC`, the TGI with A549 NSCLC was greater than 100 µM; in the assay on DU-145 prostate it was greater than 100 µM; in the assay with HCC-2998 colon, greater than 100 µM; with MDA-MB-231 breast, greater than 100 µM; in the assay on MDA-MB-435, greater than 76.1 µM; in the assay on NCI-H23 lung, 98.7 µM. The TGI in the assay on NCI-H522 lung is 38.4 µM; with PC-3 prostate, greater than 100 µM; with TK-10 renal it was greater than 100 µM; in the assay on U251 CNS, greater than 100 µM.
On to `NNC(=O)c1n[nH]nc1SSc1n[nH]nc1C(=O)NN`, for which the TGI with A549 NSCLC, in the assay on DU-145 prostate, in the assay with HCC-2998 colon, in the assay on MDA-MB-231 breast, in the assay on MDA-MB-435 and with NCI-H23 lung was greater than 100 µM each time. In addition, the TGI with NCI-H522 lung, with PC-3 prostate, in the assay on TK-10 renal and with U251 CNS was greater than 100 µM in each case.
With `N#Cc1c(C#N)c(SSc2c(C#N)c(C#N)c(N)n2-c2ccccc2)n(-c2ccccc2)c1N`, the TGI with A549 NSCLC is greater than 57.2 µM; with DU-145 prostate, 39 µM; in the assay with HCC-2998 colon, 51 µM; in the assay with MDA-MB-231 breast it was greater than 69.6 µM; with MDA-MB-435 it was 29.2 µM; in the assay with NCI-H23 lung, greater than 61 µM. Further, the TGI in the assay on NCI-H522 lung was greater than 100 µM; in the assay with PC-3 prostate it was 46.1 µM; with TK-10 renal, 3.29 µM; in the assay with U251 CNS it was 42.4 µM.
For `COC(=O)CCCCC/C(=C\C(=O)C(Cl)(Cl)Cl)OC`, the TGI in the assay with A549 NSCLC was greater than 100 µM; in the assay on DU-145 prostate it was 63.1 µM; with HCC-2998 colon, 35.6 µM; in the assay with MDA-MB-231 breast, greater than 100 µM; in the assay with MDA-MB-435, 64.7 µM; in the assay with NCI-H23 lung, greater than 100 µM. Besides, the TGI in the assay on NCI-H522 lung was determined as 41.1 µM; in the assay on PC-3 prostate, 77.9 µM; in the assay on TK-10 renal, 86.9 µM; in the assay with U251 CNS it was 90 µM.
With `CCC(=O)NCCc1c[nH]c2ccc(OC)cc12`, the TGI with A549 NSCLC, in the assay with DU-145 prostate, in the assay with HCC-2998 colon, in the assay on MDA-MB-231 breast, in the assay on MDA-MB-435 and in the assay on NCI-H23 lung was greater than 100 µM in each case. The TGI with NCI-H522 lung, in the assay with PC-3 prostate, in the assay on TK-10 renal and with U251 CNS was greater than 100 µM throughout.
In the case of `COC(=O)C1=C(C)NC(C)=C([N+](=O)[O-])C1c1cccc(NO)c1` (stereo not given), the TGI in the assay with A549 NSCLC is greater than 89.6 µM; in the assay with DU-145 prostate it was greater than 100 µM; in the assay on HCC-2998 colon, 16.8 µM; in the assay on MDA-MB-231 breast, 17 µM; in the assay on MDA-MB-435, 5.3 µM; with NCI-H23 lung, greater than 100 µM. The TGI in the assay with NCI-H522 lung is 13.9 µM; in the assay on PC-3 prostate, 26.1 µM; with TK-10 renal, 26 µM; with U251 CNS, greater than 100 µM.
Turning to `O=C1c2ccccc2C(=O)N1c1ccc(OCCN2CCCCC2)cc1`, the TGI in the assay with A549 NSCLC, in the assay on DU-145 prostate, with HCC-2998 colon, in the assay with MDA-MB-231 breast, with MDA-MB-435 and in the assay on NCI-H23 lung was greater than 100 µM in each case. In addition, the TGI in the assay with NCI-H522 lung, in the assay with PC-3 prostate, in the assay on TK-10 renal and in the assay with U251 CNS was greater than 100 µM in each case.
Regarding `CC(Cc1ccc(O)c(O)c1)C(C)Cc1ccc(O)c(O)c1` (stereo not given), the TGI was greater than 88.4 µM in the assay on A549 NSCLC; 46.4 µM with DU-145 prostate; 38.9 µM in the assay with HCC-2998 colon; greater than 57 µM in the assay on MDA-MB-231 breast; 28.3 µM in the assay on MDA-MB-435; 46.6 µM in the assay on NCI-H23 lung. The TGI with NCI-H522 lung is 4.91 µM; in the assay on PC-3 prostate it was greater than 79.6 µM; with TK-10 renal, greater than 87.7 µM; in the assay with U251 CNS it was 38.9 µM.
In the case of `O=C(NC(Nc1ccc(F)c(Cl)c1)(C(F)(F)F)C(F)(F)F)C(C(F)(F)F)C(F)(F)F`, the TGI in the assay with A549 NSCLC is greater than 100 µM; with DU-145 prostate it was greater than 100 µM; in the assay on HCC-2998 colon, greater than 100 µM; in the assay on MDA-MB-231 breast it was 78.9 µM; in the assay on MDA-MB-435, greater than 100 µM; with NCI-H23 lung, 67.1 µM. Also, the TGI was 44.8 µM in the assay with NCI-H522 lung, greater than 100 µM in the assay with PC-3 prostate, greater than 100 µM in the assay with TK-10 renal and greater than 100 µM in the assay on U251 CNS.
For the molecule `CCOC(=O)C(C)NC(=O)C(C)NC(=O)C(C)NC(=O)C(C)NC(=O)C(C)NC(=O)C(C)NC(=O)C(C)NC(=O)OCc1ccccc1` (stereo not given) (Cbz-AAAAAAA-OEt; configuration not given here), the TGI in the assay on A549 NSCLC, in the assay on DU-145 prostate, with HCC-2998 colon, in the assay on MDA-MB-231 breast, in the assay with MDA-MB-435 and in the assay on NCI-H23 lung was greater than 100 µM each time. The TGI in the assay on NCI-H522 lung, with PC-3 prostate, in the assay with TK-10 renal and in the assay with U251 CNS was greater than 100 µM throughout.
With `C[N+]1(C)CN(c2ccccc2)C2(CCN(CCCC(=O)c3cccs3)CC2)C1=O`, the TGI in the assay on A549 NSCLC, with DU-145 prostate, in the assay with HCC-2998 colon, with MDA-MB-231 breast, in the assay with MDA-MB-435 and with NCI-H23 lung was greater than 100 µM in each case. Also, the TGI in the assay on NCI-H522 lung, in the assay with PC-3 prostate, in the assay with TK-10 renal and with U251 CNS was greater than 100 µM in each case.
Consider `O=C(O)CCC1(c2ccccc2)NC(=O)NC1=O` (stereo not given), for which the TGI in the assay on A549 NSCLC, with DU-145 prostate, in the assay on HCC-2998 colon, with MDA-MB-231 breast, in the assay with MDA-MB-435 and in the assay on NCI-H23 lung was greater than 100 µM each time. The TGI in the assay with NCI-H522 lung, with PC-3 prostate, in the assay on TK-10 renal and in the assay with U251 CNS was greater than 100 µM in each case.
On to `CC/C(Cl)=N\OC(=O)Nc1ccc(C#N)cc1`, for which the TGI stood at 35.7 µM in the assay on A549 NSCLC; 29.6 µM with DU-145 prostate; 30.1 µM with HCC-2998 colon; 29.1 µM in the assay with MDA-MB-231 breast; 29.4 µM with MDA-MB-435; 32 µM with NCI-H23 lung. Further, the TGI is 2.82 µM in the assay with NCI-H522 lung, 30.5 µM in the assay with PC-3 prostate, 30.1 µM in the assay with TK-10 renal and 30.8 µM in the assay on U251 CNS.
In the case of `C=C(Cl)C(Cl)(CBr)CCC(Cl)C(C)(C)Cl` (stereo not given), the TGI in the assay with A549 NSCLC amounted to 12.7 µM; with DU-145 prostate it was 3.31 µM; in the assay with HCC-2998 colon, 16.4 µM; in the assay on MDA-MB-231 breast it was 5.83 µM; in the assay on MDA-MB-435, 8.21 µM; in the assay with NCI-H23 lung, 34.3 µM. Moreover, the TGI with NCI-H522 lung was determined as 23 µM; in the assay with PC-3 prostate, 3.36 µM; with TK-10 renal, 2.71 µM; with U251 CNS it was 1.69 µM.
For the molecule `CCOC(=O)c1nc2cc(C(F)(F)F)ccc2nc1Nc1ccc(Cl)c(Cl)c1`, the TGI in the assay with A549 NSCLC, in the assay with DU-145 prostate, in the assay on HCC-2998 colon, in the assay on MDA-MB-231 breast, in the assay on MDA-MB-435 and in the assay with NCI-H23 lung was greater than 100 µM each time. Moreover, the TGI with NCI-H522 lung, in the assay with PC-3 prostate, with TK-10 renal and with U251 CNS was greater than 100 µM throughout.
Take `Cc1cccc2c1C(=O)C(C1OC(=O)c3ccccc31)C2` (stereo not given): the TGI with A549 NSCLC, in the assay on DU-145 prostate, in the assay on HCC-2998 colon, in the assay on MDA-MB-231 breast, in the assay with MDA-MB-435 and in the assay on NCI-H23 lung was greater than 100 µM throughout. For the same molecule, the TGI in the assay with NCI-H522 lung, in the assay on PC-3 prostate, in the assay with TK-10 renal and in the assay on U251 CNS was greater than 100 µM in each case.
Consider `Cc1ccc(C2=Nc3c(N)nc(N)nc3NC(c3ccccc3)C2)cc1` (stereo not given), for which the TGI was 26.3 µM and 23.6 µM in the assay with A549 NSCLC; 28.3 µM and 29.3 µM in the assay on DU-145 prostate; 19.3 µM and 18.7 µM with HCC-2998 colon; 19.7 µM and 28.9 µM with MDA-MB-231 breast; 7.25 µM and 6.01 µM in the assay on MDA-MB-435; 24.1 µM and 25.6 µM in the assay on NCI-H23 lung. In addition, the TGI in the assay on NCI-H522 lung is 16 µM and 30.9 µM; in the assay with PC-3 prostate it was 22.9 µM and 24 µM; in the assay on TK-10 renal it was 27.6 µM and 40.2 µM; with U251 CNS it was 24.6 µM and 26.4 µM.
